In assay [1] the test system is 3T3-L1-cells (mouse embryonic fibroblast-like preadipocytes cell line). Kind of assay: Lipolysis assay (in vitro), free glycerol in supernatant. It is filed as cell-based. The note with it: for Relative lipolysis compared to basal lipolysis: added at day 10 for 20 hours, basal lipolysis = 100%. As for the experimental part: 3T3-L1-cells (mouse embryonic fibroblast-like preadipocytes cell line) were propagated in Dulbecco's Modified Eagle Medium (DMEM), enriched with 10% newborn calf serum (CS) at 37° C. and 5% CO2 and seeded in 48-well plates for lipolysis. After reaching confluence at day −2 the differentiation was induced by changing medium at day 0 to DMEM with 10% fetal calf serum (FCS) containing a hormone mix (HM) of 1 μg/ml insulin, 0.25 μM dexamethasone (Dex) and 0.5 mM 3-isobutyl-1-methylxanthine (IBMX). Medium is renewed every other day. At day 2, medium consisting of DMEM, 10% FCS and 1 μg/ml insulin is added. From day 4 on, only DMEM containing 10% FCS is used for further cultivation of cells. For determination of lipolysis, compounds of interest are added at day 10 for 20 hours mixed with bovine serum albumin (BSA). If lipolysis occurs, cells secrete glycerol into the supernatant. Therefore, supernatants are harvested and determination of lipolysis is performed by using a free glycerol reagent. The quantification of the free glycerol is carried out on the basis of an enzymatic method with a free glycerol reagent.
The lipolysis in the presence of the test substances is calculated according to the following equation:
[formula] wherein • A test substance=absorption of the wells with test substance and with cells • A control=absorption of the wells without test substance, but with cells • A control without cells=absorption of the wells without test substance and without cells

Assay [2] has the same test system. The assay can be described thus: Quantification of intracellular lipids (stimulation of adipogenesis), Nile Red. More on the design: Stimulation of adipogenesis: unit not given here. The note with it: for Stimulation of adipogenesis: applied day −2 to day 2, Nile Red at day 10, vs hormone mix only. It is filed as cell-based. As for the experimental part:
3T3-L1-cells (mouse embryonic fibroblast-like preadipocytes cell line) were propagated in Dulbecco's Modified Eagle Medium (DMEM), enriched with 10% newborn calf serum (CS) at 37° C. and 5% CO2 and seeded in 48-well plates for lipid quantification. After reaching confluence at day −2 the differentiation was induced by changing medium at day 0 to DMEM with 10% fetal calf serum (FCS) containing a hormone mix (HM) of 1 μg/ml insulin, 0.25 μM dexamethasone (Dex) and 0.5 mM 3-isobutyl-1-methylxanthine (IBMX).
Compounds of interest such as compound of formula (I) are applied from day −2 (confluence of the cells) until day 2 using various concentrations. Medium is renewed every other day. At day 2, medium consisting of DMEM, 10% FCS and 1 μg/ml insulin is added. From day 4 on, only DMEM containing 10% FCS is used for further cultivation of cells. At day 10, quantification of the intracellular lipid droplets is performed by addition of the fluorescent dye Nile Red (9-diethylamino-5H-benzo[alpha]phenoxazine-5-one) for 20 minutes at 37° C. and 5% CO2. Fluorescence (RFU) is detected with excitation at 485 nm and emission at 535 nm.
Stimulation of the adipogenesis in the presence of the compounds of interest is calculated according to the following equation:
[formula] wherein • RFU test substance=Relative Fluorescence Units of the wells with test substance and with cells • RFU control=Relative Fluorescence Units of the wells stimulated with hormone mix only. • RFU without cells=Relative Fluorescence Units of the wells containing Nile Red only, without cells.

The source of these data is patent US9066880B2, “Use of dihydrodehydrodiisoeugenol and preparations comprising dihydrodehydrodiisoeugenol” (SYMRISE AG, priority 2010, dated 2015).

As for `C[C@H]1CC[C@@]2(OC1)O[C@H]1C[C@H]3[C@@H]4CC[C@@H]5C[C@@H](O)CC[C@]5(C)[C@H]4CC[C@]3(C)[C@H]1[C@@H]2C` [sarsasapogenin, reference compound], the entries for the “Relative lipolysis compared to basal lipolysis” value in assay [1] (10 μM) and in assay [1] (20 μM) were 99% ± 3.3 and 106% ± 3.5, respectively. For the same molecule, the “Effect on lipolysis in differentiated adipocytes (in words)” value in assay [1] (experiments have shown) is listed as “no effect on the lipolysis”. In addition, the figures for the Stimulation of adipogenesis in assay [2] (10 μM) and in assay [2] (20 μM) were 27 and 17, respectively. The “Effect on adipogenesis (in words)” value in assay [2] (experiments have shown) is recorded as “stimulating the adipogenesis”.
